Data as given in ChEMBL document CHEMBL1201862, “PubChem BioAssay data set” (2004).
Activity calls are given as the source filed them.

How the values were obtained:
[1] = Luminescence Cell-Based Dose Retest to Confirm Inhibitors of Cancer Stem Cells. [Related pubchem assays (depositor defined):AID2717, AID2721]; assay type: functional; conditions: Homo sapiens
[2] = microbe, parasite or virus in culture; assay type: functional; conditions: Mycobacterium tuberculosis
[3] = target: T1, Carboxy-terminal domain RNA polymerase II polypeptide A small phosphatase 1 (Homo sapiens, UniProt Q9GZU7); experiment: inhibitors of CTDSP1, concentration-response testing, biochemical assay, absorbance-based, actives from ultra-high-throughput screening (AID 540297); assay type: functional
T1 sequence (Q9GZU7 whole entry): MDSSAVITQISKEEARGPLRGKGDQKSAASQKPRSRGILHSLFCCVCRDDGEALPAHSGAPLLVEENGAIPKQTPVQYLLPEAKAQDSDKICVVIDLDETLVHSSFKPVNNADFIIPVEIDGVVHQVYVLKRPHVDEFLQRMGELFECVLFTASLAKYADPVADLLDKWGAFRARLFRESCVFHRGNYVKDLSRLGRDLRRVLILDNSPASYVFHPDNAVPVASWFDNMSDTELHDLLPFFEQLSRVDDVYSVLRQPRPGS

Estrogen receptor = target: T2, Estrogen receptor (Homo sapiens, UniProt P03372);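 note: potency for inhibiting coactivator peptide recruitment to the receptor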
T2 sequence (P03372 whole entry): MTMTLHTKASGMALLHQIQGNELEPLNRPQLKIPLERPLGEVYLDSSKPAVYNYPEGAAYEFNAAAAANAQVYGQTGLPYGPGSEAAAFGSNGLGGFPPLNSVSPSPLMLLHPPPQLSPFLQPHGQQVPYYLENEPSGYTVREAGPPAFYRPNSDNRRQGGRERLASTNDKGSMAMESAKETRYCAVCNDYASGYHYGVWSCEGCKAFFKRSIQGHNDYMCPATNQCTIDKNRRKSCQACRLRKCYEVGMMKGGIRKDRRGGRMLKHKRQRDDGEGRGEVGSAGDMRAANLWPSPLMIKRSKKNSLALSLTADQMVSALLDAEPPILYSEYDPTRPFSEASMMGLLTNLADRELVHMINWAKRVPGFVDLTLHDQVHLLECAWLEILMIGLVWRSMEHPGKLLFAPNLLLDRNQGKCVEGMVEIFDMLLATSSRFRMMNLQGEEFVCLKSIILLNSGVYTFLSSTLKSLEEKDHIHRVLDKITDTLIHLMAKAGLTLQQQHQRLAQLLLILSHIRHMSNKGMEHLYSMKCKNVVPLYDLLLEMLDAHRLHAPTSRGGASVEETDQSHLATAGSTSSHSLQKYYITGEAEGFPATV

[4] = THP-1 cell cytotoxicity, dose response, cytotoxicity control for Vif-APOBEC3G degradation inhibitor project, THP-1 cells (AID 1117359); assay type: functional; conditions: Human immunodeficiency virus 1, THP-1
[5] = Luminescence Cell-Based Dose Confirmation HTS to Identify Activators of 5'UTR Stem-Loop Driven Alpha-Synuclein mRNA Translation in H4 Neuroglioblastoma Cells. [Related pubchem assays: 1829 (Project Summary), 1814 (Primary HTS)]; assay type: functional
H4 = experiment: Luminescence Cell-Based Dose Response HTS to Identify Activators of 5'UTR Stem-Loop Driven Prion Protein mRNA Translation in H4 Neuroglioblastoma Cells. [Related pubchem assays: 1829 (Project Summary), 1814 (Primary HTS)]; assay type: functional; conditions: Homo sapiens
[6] = target: Glucose-6-phosphate 1-dehydrogenase (Homo sapiens, UniProt P11413); experiment: human G6PD enzyme inhibitors, dose response, selectivity assay for P. falciparum G6PD inhibitor project, biochemical, fluorescence (AID 504792); assay type: functional
Chain of Glucose-6-phosphate 1-dehydrogenase (P11413 whole entry): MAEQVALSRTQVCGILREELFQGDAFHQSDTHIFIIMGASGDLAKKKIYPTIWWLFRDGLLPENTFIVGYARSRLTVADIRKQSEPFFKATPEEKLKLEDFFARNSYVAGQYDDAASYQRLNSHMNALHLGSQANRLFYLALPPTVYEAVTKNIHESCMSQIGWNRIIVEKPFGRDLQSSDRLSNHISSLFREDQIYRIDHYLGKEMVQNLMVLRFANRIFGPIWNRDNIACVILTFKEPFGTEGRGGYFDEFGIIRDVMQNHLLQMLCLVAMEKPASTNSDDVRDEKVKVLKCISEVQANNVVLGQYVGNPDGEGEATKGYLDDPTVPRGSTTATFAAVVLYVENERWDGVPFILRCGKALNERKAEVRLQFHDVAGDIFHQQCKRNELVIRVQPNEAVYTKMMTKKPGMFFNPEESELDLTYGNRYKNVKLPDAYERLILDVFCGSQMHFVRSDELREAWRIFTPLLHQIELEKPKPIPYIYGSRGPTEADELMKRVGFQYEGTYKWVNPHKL

[7] = Luminescence Cell-Based Dose Response HTS to Identify Activators of Luciferase Translation or Activity in H4 […] Cells. [Related pubchem assays: 1829 (Project Summary), 1814 (Primary HTS)]; assay type: functional
Cytochrome P450 3A4 = Cytochrome P450 3A4 (Homo sapiens, UniProt P08684);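 note: CYP3A4 tested as one member of a cytochrome P450 panel screen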
Chain of Cytochrome P450 3A4 (P08684 whole entry): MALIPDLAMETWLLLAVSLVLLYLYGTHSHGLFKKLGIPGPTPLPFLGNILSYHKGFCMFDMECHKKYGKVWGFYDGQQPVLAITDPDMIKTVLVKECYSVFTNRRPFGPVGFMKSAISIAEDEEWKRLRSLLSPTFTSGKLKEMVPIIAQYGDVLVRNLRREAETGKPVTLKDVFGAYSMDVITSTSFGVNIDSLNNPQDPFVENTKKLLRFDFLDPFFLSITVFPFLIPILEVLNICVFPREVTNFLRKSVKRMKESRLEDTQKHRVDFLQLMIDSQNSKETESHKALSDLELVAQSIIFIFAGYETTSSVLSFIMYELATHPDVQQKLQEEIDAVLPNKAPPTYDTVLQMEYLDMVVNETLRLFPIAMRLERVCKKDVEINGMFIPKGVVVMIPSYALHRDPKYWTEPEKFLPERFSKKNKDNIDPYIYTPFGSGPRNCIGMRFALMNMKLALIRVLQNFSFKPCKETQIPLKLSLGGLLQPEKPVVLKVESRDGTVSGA

Cytochrome P450 2D6 = Cytochrome P450 2D6 (Homo sapiens, UniProt P10635);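 note: CYP2D6 member of a cytochrome P450 panel assay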
Chain of Cytochrome P450 2D6 (P10635 whole entry): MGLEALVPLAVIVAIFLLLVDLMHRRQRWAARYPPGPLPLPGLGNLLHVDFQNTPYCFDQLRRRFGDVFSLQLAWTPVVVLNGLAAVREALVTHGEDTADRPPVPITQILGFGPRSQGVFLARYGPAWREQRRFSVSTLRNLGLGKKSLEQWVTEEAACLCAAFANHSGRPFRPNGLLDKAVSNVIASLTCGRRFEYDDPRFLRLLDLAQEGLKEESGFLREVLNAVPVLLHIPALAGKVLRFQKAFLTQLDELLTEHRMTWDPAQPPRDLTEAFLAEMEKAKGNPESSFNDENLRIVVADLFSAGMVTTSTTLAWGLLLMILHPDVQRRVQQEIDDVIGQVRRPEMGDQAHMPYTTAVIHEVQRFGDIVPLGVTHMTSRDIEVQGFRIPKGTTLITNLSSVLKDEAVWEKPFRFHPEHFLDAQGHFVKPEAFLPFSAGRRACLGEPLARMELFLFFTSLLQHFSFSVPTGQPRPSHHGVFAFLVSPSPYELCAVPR

[8] = target: T3, Replicative DNA helicase DnaB (Mycobacterium tuberculosis, UniProt P9WMR3); experiment: DnaB intein splicing inhibitors, dose response, biochemical, cell-free fluorescence (AID 449749); assay type: functional
T3 sequence (P9WMR3 whole entry): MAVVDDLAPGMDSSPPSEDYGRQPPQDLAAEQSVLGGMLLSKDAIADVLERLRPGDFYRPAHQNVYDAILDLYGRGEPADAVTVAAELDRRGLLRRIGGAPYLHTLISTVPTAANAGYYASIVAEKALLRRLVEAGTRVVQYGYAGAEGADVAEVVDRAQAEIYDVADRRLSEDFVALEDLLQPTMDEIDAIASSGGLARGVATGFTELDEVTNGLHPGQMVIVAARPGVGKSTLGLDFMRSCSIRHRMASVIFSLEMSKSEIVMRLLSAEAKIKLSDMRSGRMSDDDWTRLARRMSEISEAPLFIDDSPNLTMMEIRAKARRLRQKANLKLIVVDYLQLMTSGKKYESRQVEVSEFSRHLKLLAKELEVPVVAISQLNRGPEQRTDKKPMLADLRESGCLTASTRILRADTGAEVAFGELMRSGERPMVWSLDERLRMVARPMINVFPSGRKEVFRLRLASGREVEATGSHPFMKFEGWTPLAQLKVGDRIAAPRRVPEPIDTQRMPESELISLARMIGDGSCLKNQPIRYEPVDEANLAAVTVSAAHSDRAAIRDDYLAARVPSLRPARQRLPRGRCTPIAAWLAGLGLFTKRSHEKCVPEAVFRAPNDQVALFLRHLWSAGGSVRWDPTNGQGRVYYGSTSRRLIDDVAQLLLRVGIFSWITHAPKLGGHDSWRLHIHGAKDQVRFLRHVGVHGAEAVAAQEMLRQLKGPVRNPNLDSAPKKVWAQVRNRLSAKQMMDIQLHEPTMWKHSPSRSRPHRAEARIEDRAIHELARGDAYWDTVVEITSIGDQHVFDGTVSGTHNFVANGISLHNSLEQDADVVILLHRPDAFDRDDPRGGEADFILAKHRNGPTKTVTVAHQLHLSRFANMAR

Protein RecA = target: T4, Protein RecA (Mycobacterium tuberculosis, UniProt P9WHJ3); experiment: Fluorescence Cell-Free Homogeneous Dose Retest to Identify Inhibitors of RecA-Intein Splicing Activity. [Related pubchem assays (depositor defined):AID2097, AID2223, AID489010, AID492950]; assay type: functional
T4 sequence (P9WHJ3 whole entry): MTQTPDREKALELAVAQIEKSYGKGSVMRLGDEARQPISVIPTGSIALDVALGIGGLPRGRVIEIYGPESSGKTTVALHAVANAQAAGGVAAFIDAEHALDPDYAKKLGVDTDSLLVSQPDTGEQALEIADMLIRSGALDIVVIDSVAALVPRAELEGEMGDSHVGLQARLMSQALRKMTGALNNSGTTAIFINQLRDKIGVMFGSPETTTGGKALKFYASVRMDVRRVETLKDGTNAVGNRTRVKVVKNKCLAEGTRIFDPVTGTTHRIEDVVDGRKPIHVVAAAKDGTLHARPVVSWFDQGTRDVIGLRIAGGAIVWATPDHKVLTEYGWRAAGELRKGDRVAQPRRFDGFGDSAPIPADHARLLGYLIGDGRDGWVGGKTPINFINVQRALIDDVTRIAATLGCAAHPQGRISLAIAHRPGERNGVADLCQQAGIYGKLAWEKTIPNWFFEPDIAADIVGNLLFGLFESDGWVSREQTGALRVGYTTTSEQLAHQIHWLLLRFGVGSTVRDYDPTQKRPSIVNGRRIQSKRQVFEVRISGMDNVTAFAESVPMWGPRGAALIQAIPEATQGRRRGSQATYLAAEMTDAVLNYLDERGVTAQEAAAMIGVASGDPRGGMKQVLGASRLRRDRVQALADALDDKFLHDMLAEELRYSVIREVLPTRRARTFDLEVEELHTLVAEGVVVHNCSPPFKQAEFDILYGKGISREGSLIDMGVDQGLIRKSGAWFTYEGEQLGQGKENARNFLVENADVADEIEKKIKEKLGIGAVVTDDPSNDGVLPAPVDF

cells = assay type: functional, cell-based
[9] = target: T5, Nuclear receptor subfamily 0 group B member 1 (Homo sapiens, UniProt P51843); assay type: functional, cell-based;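 note: HEK293T cells transfected with SF-1 and DAX-1 plus StAR promoter luciferase reporter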
T5 sequence (P51843 whole entry): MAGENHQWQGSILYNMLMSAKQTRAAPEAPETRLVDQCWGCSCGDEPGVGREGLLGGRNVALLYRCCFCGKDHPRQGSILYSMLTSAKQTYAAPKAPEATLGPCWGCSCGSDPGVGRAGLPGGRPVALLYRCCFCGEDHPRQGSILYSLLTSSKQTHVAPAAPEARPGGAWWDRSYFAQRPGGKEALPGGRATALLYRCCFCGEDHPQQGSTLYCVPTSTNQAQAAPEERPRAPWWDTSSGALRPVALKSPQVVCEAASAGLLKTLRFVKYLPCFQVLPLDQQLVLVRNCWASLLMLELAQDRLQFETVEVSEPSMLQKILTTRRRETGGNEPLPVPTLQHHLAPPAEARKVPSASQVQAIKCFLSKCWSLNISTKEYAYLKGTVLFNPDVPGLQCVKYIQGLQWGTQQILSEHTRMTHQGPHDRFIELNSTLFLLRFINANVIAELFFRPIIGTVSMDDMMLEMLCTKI

[10] = P. falciparum Dd2 growth inhibitors, dose response, SYBR Green, cherry-picked samples (AID 1159567); assay type: functional, cell-based

Question: With `Cc1ccc(-c2cc(-c3ccccc3C)[nH]n2)c(O)c1` as the molecule, how does the AC50 [1] read?
Answer: 7.98 µM (active)

Question: What about the CC50 [2] of the same molecule?
Answer: > 40 µM (active)

Question: What does the source list for `Cc1nnc(SCC(=O)NC(=O)NCc2ccco2)n1Cc1ccccc1`?
Answer: IC50 [3]: 5.15 µM (active); IC50 (Estrogen receptor): < 1.56 µM (active)

Question: Which IC50 (Estrogen receptor) does the source give for `CC1(C)Cc2c(sc3c4nnnn4c4nnnn4c23)CO1` here?
Answer: 4.11 µM (active)

Question: With `Oc1ccc(C2c3sc(O)nc3SC3C4CCC(C4)C23)cc1` (stereo not drawn) as the molecule, how does the IC50 (Estrogen receptor) read?
Answer: > 50 µM (not active)

Question: With `Oc1nnc(Cc2ncc(C(F)(F)F)cc2Cl)c2ccccc12` as the molecule, how does the CC50 [4] read?
Answer: > 40 µM (active)

Question: With `C/C(Cn1nnc([N+](=O)[O-])n1)=N\NC(=O)c1ccccc1` as the molecule, how does the EC50 [5] read?
Answer: > 120 µM (not active)

Question: What about the EC50 (H4) of the same molecule?
Answer: > 120 µM (not active)

Question: And the IC50 [6]?
Answer: > 80 µM (inactive)

Question: What about the EC50 [7] of the same molecule?
Answer: > 120 µM (not active)

Question: For `NCCc1c[nH]c2ccccc12` [TRYPTAMINE], which CC50 [4] is on record?
Answer: > 40 µM (active)

Question: And the AC50 (Cytochrome P450 3A4)?
Answer: inconclusive

Question: And the AC50 (Cytochrome P450 2D6)?
Answer: 31.6 µM (inconclusive)

Question: For `CCOc1ccccc1CNc1ccc(O)cc1`, which AC50 [8] is on record?
Answer: > 380 µM (inactive)

Question: What about the EC50 (Protein RecA) of the same molecule?
Answer: 14 µM (active)

Question: And the IC50 [6]?
Answer: > 80 µM (inactive)

Question: What does the source list for `CN1C(=O)CSc2ccc(NC(=O)N3CCc4ccccc43)cc21`?
Answer: IC50 (cells): > 67.5 µM (inactive); IC50 [9]: > 67.5 µM (inactive); IC50 [6]: > 80 µM (inactive)

Question: Which AC50 [10] does the source give for `FC(F)(F)c1cccc(CN2[C@@H]3CNC[C@H]2[C@@H]3c2ccc(-c3cccnc3)cc2)c1` here?
Answer: 4.42 µM (active)

Question: Which AC50 [10] does the source give for `COc1ccc(C#Cc2ccc3c(c2)[C@H]2[C@H](CCN2C(=O)C2CCC2)[C@H](CO)N3)cc1` here?
Answer: 3.3 µM (active)

Question: Which CC50 [4] does the source give for `COc1ccc(NC(=O)/C(C#N)=C\c2ccc(Br)o2)cc1` here?
Answer: 3.4 µM (active)
